Measured values: the CheMixHub drug solubility set

Experiment: xn = mol fraction of the nth substance listed, in the solute-free solvent

CC(=O)N1CCN(c2ccc(OCC3COC(Cn4ccnc4)(c4ccc(Cl)cc4Cl)O3)cc2)CC1 (configuration not stated) + CC#N + O
solubility (g/100 g solution)
Settings | x2 = 0.04651 | x2 = 0.0989 | x2 = 0.1583 | x2 = 0.2264 | x2 = 0.3051 | x2 = 0.397 | x2 = 0.506 | x2 = 0.6372 | x2 = 0.798
293.15 K | 0.0181 | 0.108 | 0.587 | 2.22 | 5.12 | 9.21 | 11.9 | 10 | 4.67
298.15 K | 0.0214 | 0.122 | 0.681 | 2.63 | 6.07 | 10.5 | 13 | 11.2 | 5.65
303.15 K | 0.024 | 0.137 | 0.794 | 2.95 | 6.89 | 11.7 | 14.2 | 12.5 | 6.84
308.15 K | 0.0263 | 0.157 | 0.888 | 3.36 | 7.88 | 12.9 | 15.4 | 13.6 | 7.71
313.15 K | 0.0283 | 0.177 | 0.992 | 3.72 | 8.81 | 13.8 | 16.5 | 14.9 | 8.58

c1ccc2[nH]c(-c3cscn3)nc2c1 + CC#N + O
solubility (g/100 g solution)
Settings | 283.15 K | 288.15 K | 293.15 K | 298.15 K | 303.15 K | 308.15 K | 313.15 K | 318.15 K | 323.15 K
x2 = 0.04651 | 0.00121 | 0.00153 | 0.00195 | 0.00251 | 0.00312 | 0.00391 | 0.00486 | 0.00604 | 0.00759
x2 = 0.0989 | 0.00381 | 0.0048 | 0.0062 | 0.00795 | 0.00993 | 0.0122 | 0.0152 | 0.0184 | 0.0223
x2 = 0.1583 | 0.00804 | 0.0102 | 0.013 | 0.0163 | 0.0204 | 0.0251 | 0.0307 | 0.0373 | 0.0446
x2 = 0.2264 | 0.0137 | 0.0175 | 0.0219 | 0.027 | 0.0332 | 0.0403 | 0.0487 | 0.0587 | 0.0699
x2 = 0.3051 | 0.0203 | 0.0246 | 0.0311 | 0.0385 | 0.0467 | 0.0564 | 0.0675 | 0.0804 | 0.0944
x2 = 0.397 | 0.0272 | 0.0332 | 0.0403 | 0.049 | 0.0593 | 0.0713 | 0.0845 | 0.1 | 0.118
x2 = 0.506 | 0.0343 | 0.0409 | 0.0505 | 0.0604 | 0.0718 | 0.0849 | 0.1 | 0.121 | 0.141
x2 = 0.6372 | 0.0418 | 0.0499 | 0.0602 | 0.0732 | 0.0874 | 0.103 | 0.123 | 0.145 | 0.168
x2 = 0.798 | 0.0476 | 0.0573 | 0.0693 | 0.0823 | 0.0998 | 0.118 | 0.14 | 0.163 | 0.188

Nc1ccc(Oc2ccc(N)cc2)cc1 + CC(=O)N(C)C + CCO
solubility (g/100 g solution)
Settings | 293.15 K | 298.15 K | 303.15 K | 308.15 K | 313.15 K | 318.15 K | 323.15 K | 328.15 K | 333.15 K
x2 = 0.0555 | 0.741 | 0.782 | 0.905 | 1.15 | 1.39 | 1.68 | 1.96 | 2.28 | 2.64
x2 = 0.1168 | 1.32 | 1.4 | 1.59 | 1.94 | 2.32 | 2.66 | 3 | 3.15 | 4.12
x2 = 0.1848 | 2.35 | 2.56 | 2.88 | 3.13 | 3.63 | 4.09 | 4.68 | 4.75 | 6.13
x2 = 0.2606 | 3.91 | 4.24 | 4.6 | 5.13 | 5.62 | 6.3 | 7.13 | 7.67 | 8.79
x2 = 0.3459 | 6.23 | 6.74 | 7.16 | 7.94 | 8.38 | 9.29 | 10.3 | 11 | 12.2
x2 = 0.4423 | 9.4 | 10 | 10.6 | 11.4 | 12 | 13.1 | 14 | 15.2 | 16.3
x2 = 0.5523 | 13.3 | 14.1 | 14.8 | 15.3 | 16.3 | 17.5 | 18.6 | 19.7 | 21.1
x2 = 0.679 | 17.9 | 18.6 | 19.3 | 20.2 | 21 | 22 | 23.2 | 24.2 | 25.1
x2 = 0.8264 | 22.6 | 23.5 | 24 | 24.5 | 25.6 | 26.7 | 27.4 | 28.7 | 30

CN1CCN(C2=Nc3cc(Cl)ccc3Nc3ccccc32)CC1 + CC(C)=O + Cc1ccccc1
solubility (g/100 g solution)
Settings | x2 = 0.1503 | x2 = 0.2841 | x2 = 0.4047 | x2 = 0.5141 | x2 = 0.6136 | x2 = 0.7038 | x2 = 0.7876 | x2 = 0.8642 | x2 = 0.9343
293.15 K | 4.2 | 5.72 | 6.98 | 7.87 | 8.37 | 8.49 | 8.42 | 8.02 | 7.41
298.15 K | 4.59 | 6.06 | 7.92 | 8.77 | 9.44 | 9.83 | 9.53 | 9.03 | 8.42
303.15 K | 5.42 | 7.16 | 8.86 | 9.9 | 10.6 | 10.7 | 9.99 | 9.78 | 8.81
308.15 K | 6.11 | 8.41 | 9.86 | 10.9 | 11.9 | 12.3 | 11.6 | 11.3 | 10.4
313.15 K | 7.38 | 9.81 | 11.5 | 12.7 | 13.4 | 13.6 | 13.4 | 12.9 | 11.9
318.15 K | 8.97 | 11.4 | 13.2 | 14.3 | 15.4 | 15.3 | 15.5 | 14.8 | 13.4

CC(C)OC(=O)C(C)NP(=O)(OCC1OC(n2ccc(=O)[nH]c2=O)C(C)(F)C1O)Oc1ccccc1 (configuration not stated) + CC(C)=O + O
solubility (g/100 g solution)
Settings | 278.15 K | 283.15 K | 288.15 K | 293.15 K | 298.15 K | 303.15 K | 308.15 K | 313.15 K | 318.15 K
x2 = 0.03333 | 0.447 | 0.659 | 0.884 | 1.19 | 1.57 | 2.08 | 2.72 | 3.52 | 4.39
x2 = 0.07199 | 1.86 | 2.63 | 3.43 | 4.47 | 5.72 | 7.3 | 9.16 | 11.4 | 13.7
x2 = 0.1174 | 3.81 | 5.24 | 6.7 | 8.54 | 10.7 | 13.3 | 16.2 | 19.6 | 23.1
x2 = 0.1714 | 5.39 | 7.25 | 9.19 | 11.6 | 14.2 | 17.4 | 21 | 25.1 | 29.1
x2 = 0.2368 | 6.68 | 8.82 | 11.1 | 13.8 | 16.9 | 20.4 | 24.2 | 28.4 | 32.6
x2 = 0.3176 | 8.37 | 10.8 | 13.6 | 16.7 | 20.2 | 24 | 28.1 | 32.4 | 36.8
x2 = 0.42 | 11.2 | 14.2 | 17.5 | 21.1 | 24.9 | 28.9 | 33.3 | 37.8 | 42.6
x2 = 0.5538 | 15 | 18.1 | 21.8 | 26.1 | 30.7 | 35.3 | 40.1 | 45 | 49.6
x2 = 0.7363 | 18.3 | 22.9 | 27.4 | 32.1 | 37.1 | 42.2 | 47 | 51.8 | 56.6

S=c1[nH]ncs1 + CC(C)=O + O
solubility (g/100 g solution)
Settings | 278.15 K | 283.15 K | 288.15 K | 293.15 K | 298.15 K | 303.15 K | 308.15 K | 313.15 K | 318.15 K | 323.15 K
x2 = 0.1 | 1.78 | 2.36 | 2.99 | 3.78 | 4.76 | 6 | 7.45 | 9.31 | 11.5 | 14.2
x2 = 0.2 | 6.07 | 7.41 | 8.84 | 10.6 | 12.5 | 14.8 | 17.3 | 20.2 | 23.6 | 27.1
x2 = 0.3 | 11.4 | 13.3 | 15.3 | 17.4 | 19.6 | 22.2 | 24.9 | 28.1 | 30.9 | 34.4
x2 = 0.4 | 15.7 | 17.9 | 20.2 | 22.5 | 24.8 | 27.1 | 29.6 | 32.5 | 35.3 | 38.5
x2 = 0.5 | 19.8 | 21.7 | 23.7 | 25.6 | 27.8 | 30.3 | 32.6 | 34.8 | 37.3 | 40.1
x2 = 0.6 | 22 | 23.6 | 25.6 | 27.3 | 29.3 | 31.4 | 33.2 | 35.3 | 37.6 | 39.8
x2 = 0.7 | 22.6 | 24.3 | 26.2 | 27.7 | 29.5 | 31.4 | 33.2 | 35 | 37.1 | 39.3
x2 = 0.8 | 23.1 | 24.5 | 25.9 | 27.4 | 29.1 | 30.8 | 32.5 | 34 | 35.7 | 37.4
x2 = 0.9 | 21.4 | 22.6 | 24.2 | 25.6 | 27.2 | 28.6 | 30.4 | 32.1 | 33.7 | 35.3

CC(C)=CCCC(C)C1CCC2(C)C3=C(CCC12C)C1(C)CCC(O)C(C)(C)C1CC3 (configuration not stated) + CC(C)O + O
solubility (g/100 g solution)
Settings | 278.15 K | 288.15 K | 298.15 K | 308.15 K | 318.15 K
x2 = 0.01234 | 2.03e-05 | 2.81e-05 | 3.2e-05 | 3.94e-05 | 5.13e-05
x2 = 0.09088 | 0.000156 | 0.000176 | 0.000221 | 0.00024 | 0.000254
x2 = 0.2604 | 0.0158 | 0.0209 | 0.0306 | 0.0368 | 0.0456
x2 = 0.6874 | 0.147 | 0.272 | 0.373 | 0.472 | 0.64

Cc1[nH]c(=O)c(C#N)cc1-c1ccncc1 + CC(C)O + O
solubility (g/100 g solution)
Settings | 278.15 K | 283.15 K | 288.15 K | 293.15 K | 298.15 K | 303.15 K | 308.15 K | 313.15 K | 318.15 K | 323.15 K
x2 = 0.03225 | 0.00105 | 0.00126 | 0.00148 | 0.00173 | 0.00202 | 0.00231 | 0.00261 | 0.00296 | 0.00333 | 0.00376
x2 = 0.06974 | 0.00174 | 0.00206 | 0.00243 | 0.00283 | 0.0033 | 0.00374 | 0.00423 | 0.00479 | 0.00537 | 0.00604
x2 = 0.1139 | 0.00266 | 0.00311 | 0.00366 | 0.00429 | 0.00498 | 0.00565 | 0.00635 | 0.00712 | 0.00801 | 0.00906
x2 = 0.1666 | 0.00378 | 0.00445 | 0.00523 | 0.00608 | 0.00705 | 0.00798 | 0.009 | 0.0102 | 0.0114 | 0.0128
x2 = 0.2307 | 0.00502 | 0.00587 | 0.00684 | 0.00797 | 0.00927 | 0.0105 | 0.0119 | 0.0135 | 0.0151 | 0.017
x2 = 0.3103 | 0.00629 | 0.00741 | 0.00871 | 0.0101 | 0.0118 | 0.0133 | 0.015 | 0.0171 | 0.019 | 0.0214
x2 = 0.4117 | 0.00743 | 0.00875 | 0.0102 | 0.0119 | 0.0137 | 0.0155 | 0.0178 | 0.02 | 0.0224 | 0.0256
x2 = 0.5454 | 0.0083 | 0.00978 | 0.0115 | 0.0135 | 0.0155 | 0.0177 | 0.02 | 0.0226 | 0.0256 | 0.0291
x2 = 0.7297 | 0.00873 | 0.0102 | 0.012 | 0.0141 | 0.0163 | 0.0188 | 0.0214 | 0.0243 | 0.0274 | 0.0314
